In patent US20140004243A1, “SALTY TASTE ENHANCER” (AJINOMOTO CO., INC., priority 2011, published 2014):

Target: T1, Human ENaC δ, β and γ subunit (Homo sapiens, UniProt P51168+P51170+P51172)
T1 construct: expressed in transfected cells; host or cells: Xenopus laevis (African clawed frog) oocytes injected with cRNA
T1 sequence (P51172 1-802): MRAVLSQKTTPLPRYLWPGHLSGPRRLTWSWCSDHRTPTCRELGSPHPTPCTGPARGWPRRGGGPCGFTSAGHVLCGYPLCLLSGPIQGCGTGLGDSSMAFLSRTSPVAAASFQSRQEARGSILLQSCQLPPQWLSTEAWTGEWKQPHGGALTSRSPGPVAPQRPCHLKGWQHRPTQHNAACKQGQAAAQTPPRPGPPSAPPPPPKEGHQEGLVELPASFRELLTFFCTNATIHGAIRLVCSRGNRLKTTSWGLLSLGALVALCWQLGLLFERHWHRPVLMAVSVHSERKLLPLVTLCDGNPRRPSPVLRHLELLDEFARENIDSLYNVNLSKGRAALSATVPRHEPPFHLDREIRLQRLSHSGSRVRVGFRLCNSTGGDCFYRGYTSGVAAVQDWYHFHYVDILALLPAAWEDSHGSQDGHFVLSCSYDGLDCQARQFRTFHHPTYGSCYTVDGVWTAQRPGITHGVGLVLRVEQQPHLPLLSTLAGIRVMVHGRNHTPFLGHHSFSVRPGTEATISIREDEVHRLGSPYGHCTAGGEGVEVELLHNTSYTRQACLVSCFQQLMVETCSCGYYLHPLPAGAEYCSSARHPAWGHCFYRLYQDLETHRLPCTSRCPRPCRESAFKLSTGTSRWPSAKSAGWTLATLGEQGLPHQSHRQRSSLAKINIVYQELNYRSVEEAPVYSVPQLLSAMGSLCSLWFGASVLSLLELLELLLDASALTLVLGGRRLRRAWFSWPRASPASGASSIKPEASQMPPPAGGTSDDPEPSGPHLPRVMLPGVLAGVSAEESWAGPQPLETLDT
T1 sequence (P51168 1-640): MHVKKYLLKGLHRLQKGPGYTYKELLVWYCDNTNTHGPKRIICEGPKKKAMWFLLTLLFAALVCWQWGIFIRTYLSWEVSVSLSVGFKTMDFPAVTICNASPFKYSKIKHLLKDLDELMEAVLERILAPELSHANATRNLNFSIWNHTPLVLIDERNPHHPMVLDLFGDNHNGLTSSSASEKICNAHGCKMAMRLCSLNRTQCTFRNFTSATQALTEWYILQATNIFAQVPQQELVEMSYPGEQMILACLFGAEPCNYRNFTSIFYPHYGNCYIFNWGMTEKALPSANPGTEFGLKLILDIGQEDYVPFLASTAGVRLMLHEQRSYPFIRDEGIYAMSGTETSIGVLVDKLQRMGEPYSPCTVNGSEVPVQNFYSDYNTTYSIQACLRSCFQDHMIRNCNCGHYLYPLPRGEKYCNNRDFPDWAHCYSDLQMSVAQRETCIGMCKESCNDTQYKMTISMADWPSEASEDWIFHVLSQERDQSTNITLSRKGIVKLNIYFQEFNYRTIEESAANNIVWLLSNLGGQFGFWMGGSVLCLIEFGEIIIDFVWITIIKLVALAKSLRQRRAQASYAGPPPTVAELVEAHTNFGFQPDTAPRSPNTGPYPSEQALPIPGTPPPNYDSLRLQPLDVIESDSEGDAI
T1 sequence (P51170 1-649): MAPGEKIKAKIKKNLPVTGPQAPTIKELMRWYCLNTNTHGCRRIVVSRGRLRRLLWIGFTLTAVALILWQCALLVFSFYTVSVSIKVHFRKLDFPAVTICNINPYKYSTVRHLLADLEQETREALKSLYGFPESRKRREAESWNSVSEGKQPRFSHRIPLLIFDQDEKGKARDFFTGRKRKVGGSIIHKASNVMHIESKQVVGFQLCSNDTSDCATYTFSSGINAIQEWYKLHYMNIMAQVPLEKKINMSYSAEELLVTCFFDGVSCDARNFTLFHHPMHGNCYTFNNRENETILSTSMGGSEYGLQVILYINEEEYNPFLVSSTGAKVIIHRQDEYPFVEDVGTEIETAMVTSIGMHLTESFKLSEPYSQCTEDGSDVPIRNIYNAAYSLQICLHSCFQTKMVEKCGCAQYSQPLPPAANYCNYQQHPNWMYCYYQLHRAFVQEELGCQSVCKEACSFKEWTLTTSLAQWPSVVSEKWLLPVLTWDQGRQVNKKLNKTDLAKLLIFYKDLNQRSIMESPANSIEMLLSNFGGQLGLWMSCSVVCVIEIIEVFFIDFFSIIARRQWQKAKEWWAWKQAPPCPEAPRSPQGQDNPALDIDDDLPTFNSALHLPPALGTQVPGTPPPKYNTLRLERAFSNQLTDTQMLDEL
Assay: Measurement of ENaC activation potency (MED) in ENaC-expressing oocyte, Two Electrode Voltage Clamp
Type: cell-based
Conditions: minimum effective dose at which current started to increase; ENaC-expressing African clawed frog oocyte; smaller MED = higher ENaC activation potency
Protocol: ENaC activation current value, namely, the inward current in ENaC-expressing oocyte was measured as follows.
According to the method described in Motonao Nakamura, Takao Shimizu: Experiment of African clawed frog oocyte, Experimental Medicine Vol. 11, No. 3, 224-232 (1993), oocyte was collected from African clawed frog, […], and the current value was measured by a Two Electrode Voltage Clamp technique. In the present invention, ND96 (96 mM NaCl, 2 mM KCl, 1 mM MgCl2, 5 mM Hepes, 1.8 mM CaCl2, pH 7.6) was used instead of MBS buffer in the above-mentioned document. Injector NANOLITER 2000 manufactured by World Precision Instruments was used for microinjection, OpusXpress 6000A manufactured by Molecular Devices was used for current value measurement by a Two Electrode Voltage Clamp technique, and Clampfit 10.2 software manufactured by Molecular Devices was used for data analysis.
Human ENaC δ, β and γ subunit genes shown by SEQ ID NOs: 1, 2 and 3, respectively, in the Sequence Listing were each cloned into a plasmid vector, and used as a template DNA for cRNA synthesis. cRNA was synthesized using MEGAscript kit manufactured by Ambion and according to the method of the manual of the manufacturer.
A mixture of the same amount of ENaC […] cRNA (0.4 to 0.8 μg/μL), and β and γ subunits cRNA (0.4 μg/μL) was injected into the oocyte of African clawed frog at […] per oocyte, and the oocyte was cultured for 16 hr-72 hr. Thereafter, the oocyte was set on a measuring apparatus OpusXpress 6000A, the electrodes were inserted into the oocyte, the voltage was clamped at a level lower by −30 mV than the resting membrane potential by a Two Electrode Voltage Clamp technique, and the current value was measured.
To measure the ENaC activation potency, oocyte was stimulated with each test compound, and the minimum effective dose (hereinafter to be abbreviated as MED) of the compound at the time point when the electric current started to increase was measured. In this case, whichever smaller value of the minimum effective dose of the stimulation compound that increased the current value by not less than 10%, and the minimum effective concentration of the compound that increased, by not less than 25%, the electric current increase value due to the stimulation by 5 μM capsazepine (CAS NO.: 138977-28-3), as compared to the current value before addition of the compound and without stimulation, was taken as MED. A smaller MED means higher ENaC activation potency.
Each test compound was directly dissolved in ND96, or first dissolved in dimethyl sulfoxide (DMSO) to 100 mM, and then prepared by diluting the solution with ND96 to a concentration used for the evaluation. The concentration of the test compound in ND96 was prepared to various concentrations within the range of 0.1 nM to 300 μm.
ND96 as a perfusion fluid was flown at a rate of 0.5 mL/min through the measuring apparatus OpusXpress 6000A on which ENaC-expressing oocyte was set, the perfusion fluid was temporarily stopped every 3 minutes to add a test compound solution (0.25 mL) dissolved in ND96 at a rate of 0.5 mL/min. In this way, the test compound was contacted with ENaC-expressing oocyte, and whether ENaC is activated by the compound was examined by measuring the current value. After addition of the test compound, feeding of the perfusion fluid was resumed to wash away the compound to be ready for the next addition of the compound.
The compound was added successively from a low concentration to a high concentration to stimulate ENaC-expressing oocyte. The concentrations actually added was, for example, 1 nM, 3 nM, 10 nM, 30 nM, 100 nM, 300 nM; 1 μM, 3 μM, 10 μm, 30 μm, 100 μm, 300 μm; 1.2 μM, 6 μM, 30 μm, 150 μm of one test compound. The compound was added from low concentrations to high concentrations at 3 min intervals. […]

Row | MED | SMILES
1 | 0.06 to 0.1 µM | C[C@@H](NC(=S)NCC(O)c1ccccc1O)c1cccc(O)c1 (stereo partly drawn) [Example 105, 1-[2-(2-hydroxyphenyl)-2-hydroxyethyl]-3-[(R)-1-(3-hydroxyphenyl)ethyl]thiourea]
2 | 0.3 µM | C[C@@H](NC(=S)N[C@@H](Cc1ccc(O)cc1)C(=O)O)c1cccc(O)c1 [Example 110]
3 | 0.1 µM | C[C@@H](NC(=S)Nc1ccccc1C(=O)O)c1cccc(O)c1 [Example 118]
4 | 0.06 µM | C[C@@H](NC(=S)NCCc1ccccc1O)c1cccc(O)c1 [Example 89, 1-[2-(2-hydroxyphenyl)ethyl]-3-[(R)-1-(3-hydroxyphenyl)ethyl]thiourea]
5 | 0.1 to 0.3 µM | C[C@@H](NC(=S)NC(Cc1ccccc1O)C(=O)O)c1cccc(O)c1 (stereo partly drawn) [Example 106, 2-{3-[(R)-1-(3-hydroxyphenyl)ethyl]thioureido}-3-(2-hydroxyphenyl)propanoic acid]
6 | 3 µM | C[C@@H](NC(=S)N/N=C/c1ccccc1O)c1ccccc1 [Example 35]
7 | 1 µM | C[C@@H](NC(=S)NNCc1ccccc1O)c1ccccc1 [Example 90]
8 | 10 µM | C[C@H](NC(=S)NCCc1ccccc1)c1ccccc1 [Example 12]
9 | 1 µM | O=C(O)[C@@H](NC(=S)NCCc1ccccc1O)c1ccccc1 [Example 102, (S)-2-{3-[2-(2-hydroxyphenyl)ethyl]thioureido}-2-phenylacetic acid]
10 | 3 to 10 µM | C[C@@H](NC(=S)NNCc1c(O)cccc1O)c1ccccc1 [Example 95]
11 | 3 µM | OC[C@H](NC(=S)NCCc1ccccc1)c1ccccc1 [Example 50]
12 | 0.06 to 0.1 µM | C[C@@H](NC(=S)NCC(O)c1cccc(O)c1O)c1cccc(O)c1 (stereo partly shown) [Example 111]

The remaining lines, values behind:

Row | SMILES | MED
13 | Oc1ccccc1CCNC(=S)NCc1ccccc1 [Example 62] | 1.1 µM
14 | Oc1cc(O)cc(CNC(=S)NCCc2ccccc2)c1 [Example 68] | 3 µM
15 | S=C(CCCc1ccccc1)NCc1ccccc1 [Example 80, N-benzyl-4-phenylbutanethioamide] | 10 µM
16 | OC[C@H](Cc1ccccc1)NC(=S)NCc1ccccc1 [Example 57] | 1 µM
17 | COC(=O)c1cc(O)ccc1NC(=S)N(C)CCc1ccccc1 [Example 119] | 3 µM
18 | S=C(NCCc1ccccc1)NCC12CC3CC(CC(C3)C1)C2 [Example 32] | 10 µM
19 | O=C(O)c1ccccc1NC(=S)Nc1ccc(Cl)cc1 [Example 117] | 0.3 µM
20 | CN(CCc1ccccc1O)C(=S)Nc1ccc(O)cc1C(=O)O [Example 124] | 0.3 µM
21 | Oc1cccc(CNC(=S)NCCc2ccccc2)c1 [Example 44] | 1 µM
22 | CC(C)CN(Cc1ccc(O)c(O)c1)C(=S)NCCc1ccccc1 [Example 48] | 1 µM
23 | COc1ccc([C@@H](C)NC(=S)NCCc2ccccc2O)cc1OC [Example 100] | 1 µM
24 | S=C(NCCc1ccccc1)N1Cc2ccccc2C1 [Example 55] | 30 µM
25 | Oc1ccccc1CNC(=S)NCCc1ccccc1 [Example 61] | 30 µM
26 | Oc1cc2c(cc1O)CN(C(=S)NCCc1ccc(Cl)cc1)CC2 [Example 2] | 3 µM
27 | CN(CCc1ccccc1)C(=S)Nc1ccccc1C(=O)O [Example 38] | 0.1 µM
28 | Oc1ccccc1CCNC(=S)N[C@@H]1CCc2ccccc21 [Example 88] | 0.6 to 1 µM
29 | CN(CCc1ccccc1)C(=S)NCc1ccccc1 [Example 66] | 3 to 10 µM
30 | S=C(NCCc1ccccc1)N[C@H](COCc1ccccc1)c1ccccc1 [Example 76] | 10 µM
31 | N#Cc1ccc(CNC(=S)NCCc2ccccc2)cc1 [Example 65] | 3.3 µM
32 | O[C@@H](CNC(=S)NCc1ccccc1)c1ccccc1 [Example 71] | 1 µM
33 | Cc1ccc(S(=O)(=O)Nc2cccc(CNC(=S)NCCc3ccccc3)c2)cc1 [Example 87] | 10 µM
34 | S=C(NCCC1CCCCC1)NCc1ccccc1 [Example 70] | 10 µM
35 | S=C(NCCc1ccccc1)NCc1nc2ccccc2[nH]1 [Example 33] | 3 µM
36 | S=C(NCCc1c[nH]c2ccccc12)Nc1ccccc1 [Example 34] | 10 µM
37 | O[C@H](CNC(=S)NCc1ccccc1)c1ccccc1 [Example 72] | 1 µM
